Laboratory results published in paper PMC4031293 (Molecular pharmaceutics, 2014).
Entries after “also recorded” stand apart in the source; their conditions may differ. Structures can show the parent of a compound that is named as a salt. Where two headings read alike, the source gives them in different places.

Columns and labels:
[1] = system: P-gp; settings: P-gp chemically inhibited, mouse or rat; 4; 5; cited from earlier work
[2] = system: P-gp; settings: cited from earlier work; for increase in brain distribution in mdr1a/b(−/−) vs. wild-type mice: 2, 3
[3] = target: T1, P-gp at the rat BBB (Rattus norvegicus, UniProt Q6PSM0); settings: 5.6 µM CsA blood concentration; 18; cited from earlier work
T1 sequence (Q6PSM0 1-1272): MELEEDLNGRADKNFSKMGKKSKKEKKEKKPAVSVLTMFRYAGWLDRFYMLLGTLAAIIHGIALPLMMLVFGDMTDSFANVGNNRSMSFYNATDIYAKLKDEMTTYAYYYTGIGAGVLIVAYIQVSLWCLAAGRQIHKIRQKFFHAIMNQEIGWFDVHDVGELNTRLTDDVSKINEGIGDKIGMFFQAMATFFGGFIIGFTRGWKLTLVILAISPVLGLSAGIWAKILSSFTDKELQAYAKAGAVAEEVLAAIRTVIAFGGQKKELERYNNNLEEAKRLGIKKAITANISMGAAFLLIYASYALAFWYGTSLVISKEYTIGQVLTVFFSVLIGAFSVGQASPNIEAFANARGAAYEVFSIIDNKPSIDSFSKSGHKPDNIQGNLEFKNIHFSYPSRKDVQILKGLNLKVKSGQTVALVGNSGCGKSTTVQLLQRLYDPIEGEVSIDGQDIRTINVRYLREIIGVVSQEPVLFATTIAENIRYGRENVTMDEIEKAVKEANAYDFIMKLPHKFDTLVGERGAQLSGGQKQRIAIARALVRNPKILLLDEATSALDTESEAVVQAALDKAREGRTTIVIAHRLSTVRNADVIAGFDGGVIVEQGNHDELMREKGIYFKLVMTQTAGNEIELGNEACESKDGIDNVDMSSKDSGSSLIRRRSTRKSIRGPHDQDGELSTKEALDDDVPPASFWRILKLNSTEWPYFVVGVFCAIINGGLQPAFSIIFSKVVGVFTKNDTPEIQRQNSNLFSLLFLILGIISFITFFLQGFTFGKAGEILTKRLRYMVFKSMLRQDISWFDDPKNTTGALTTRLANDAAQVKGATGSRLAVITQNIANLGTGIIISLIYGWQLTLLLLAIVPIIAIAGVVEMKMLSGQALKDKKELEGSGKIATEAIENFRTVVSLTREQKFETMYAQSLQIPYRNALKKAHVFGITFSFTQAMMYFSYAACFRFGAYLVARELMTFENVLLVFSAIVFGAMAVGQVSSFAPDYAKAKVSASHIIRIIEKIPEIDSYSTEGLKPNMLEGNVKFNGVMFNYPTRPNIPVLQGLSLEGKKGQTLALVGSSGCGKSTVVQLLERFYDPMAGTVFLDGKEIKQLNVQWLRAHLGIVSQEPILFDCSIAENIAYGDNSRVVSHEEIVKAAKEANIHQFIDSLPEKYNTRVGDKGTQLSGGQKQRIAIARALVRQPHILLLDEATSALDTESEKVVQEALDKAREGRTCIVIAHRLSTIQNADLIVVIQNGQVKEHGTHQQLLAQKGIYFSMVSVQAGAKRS

[4] = system: intracerebral human glioblastoma; settings: co-administration with paclitaxel compared to paclitaxel alone; cited from earlier work
[5] = pseudo steady-state blood CsA and plasma NFV concentrations in rats; assay type: in vivo, rat
[6] = target: T1, P-gp at the rat BBB; settings: from brain:plasma ratios 0.044 and 0.93
[7] = cited from earlier work
[8] = system: BCRP; settings: cited from earlier work
[9] = target: P-gp (Rattus norvegicus, UniProt Q6PSM0); assay: in vivo; settings: Sprague Dawley; for Kp at 2 h: absence of CsA, 120 min; for Kp at 120 min: with maximum P-gp inhibition by CsA
P-gp (Rattus norvegicus, UniProt Q6PSM0), sequence (Q6PSM0 1-1272): as above

[10] = system: P-gp at the human BBB; settings: for predicted increase in NFV human brain:plasma concentration ratio: prediction based on the rat study alone
[11] = system: P-gp at the human BBB; settings: tariquidar 6 mg/kg; cited from earlier work

CN(C)C(=O)C(CCN1CCC(O)(c2ccc(Cl)cc2)CC1)(c1ccccc1)c1ccccc1 [loperamide]
increase in brain distribution in the presence vs. absence of the P-gp inhibitor [1]: 1500% | increase in brain distribution in mdr1a/b(−/−) vs. wild-type mice [2]: 1200% | increase in total loperamide-radioactivity uptake into the brain of rats [3]: 588%

C/C=C/C[C@@H](C)C(=O)[C@H]1C(=O)N[C@@H](C(C)C)C(=O)N(C)CC(=O)N(C)[C@@H](CC(C)C)C(=O)N[C@@H](C(C)C)C(=O)N(C)[C@@H](CC(C)C)C(=O)N[C@@H](C)C(=O)N[C@H](C)C(=O)N(C)[C@@H](CC(C)C)C(=O)N(C)[C@@H](CC(C)C)C(=O)N(C)[C@@H](C(C)C)C(=O)N1C [PSC833]
brain tumor volume [4]: significant reduction in the brain tumor volume

Cc1c(O)cccc1C(=O)N[C@@H](CSc1ccccc1)[C@H](O)CN1C[C@H]2CCCC[C@H]2C[C@H]1C(=O)NC(C)(C)C [NFV, Nelfinavir mesylate]
effect of CsA on pseudo steady-state plasma NFV concentration ([5]; at 120 min, Student's t-test): did not significantly affect; also recorded: not significantly affected | time to pseudo steady-state NFV plasma concentration ([5]; i.v. bolus plus constant rate i.v. infusion): ≤ 30 min | ft(P-gp), not corrected for vascular content [6]: 0.95 | blood: plasma ratio [7]: 0.877 | substrate of BCRP [8]: not a substrate | Kp at 2 h ([9]; NFV brain:plasma concentration ratio corrected for vascular contamination): 0.014 ± 0.01 | Kp at 2 h ([9]; NFV brain:plasma concentration ratio, not corrected for vascular contamination): 0.044 ± 0.01 | Kp at 120 min ([9]; NFV brain:plasma ratio after vascular-content correction): 0.9 ± 0.16 | Kp at 120 min ([9]; NFV brain:plasma ratio, uncorrected for vascular content): 0.93 ± 0.16 | increase in brain distribution in mdr1a/b(−/−) vs. wild-type mice [2]: 3400% | increase in brain:blood concentration ratio in mdr1a/b(−/−) vs. wild-type mice [2]; 5: 3400% | predicted increase in NFV human brain:plasma concentration ratio ([10]; CsA blood 1.5 µM): 236% | predicted increase in the NFV brain:plasma concentration ratio / distribution into the human brain ([10]; CsA blood 1.5 µM, rat data and in vitro LLCPK1-MDR1 data): 241% | predicted increase in the NFV brain:plasma concentration ratio at the human BBB ([10]; CsA blood 2.8 µM, in vitro data scaled using rat in vivo data): 555% | predicted increase in NFV human brain:plasma concentration ratio ([10]; CsA blood 2.8 µM): 589%

CNC(=O)C(CCN1CCC(O)(c2ccc(Cl)cc2)CC1)(c1ccccc1)c1ccccc1 [dLop, N-desmethyl-loperamide]
increase in distribution into the human brain [11]: ≤ 300%
